Measured values reported in patent publication US20150245596A1, “MELANOCORTIN RECEPTOR MUTANT MOUSE AND USES THEREOF” (THE GENERAL HOSPITAL CORPORATION, priority 2012, published 2015).
Entries after “also recorded” stand apart in the source; their conditions may differ.

Experiments:
[1] = system: primary cell line derived from one of the redhead (BRaf^V600E-Mc1r^e/e) melanomas; conditions: redhead-derived melanoma cells
Procedure: (§1) Tumor cells were digested overnight in 10 mg/ml collagenase and 1 mg/ml hyaluronidase. Initially tumor cells were grown in RPMI media with HEPES and 20% serum. Subsequently tumor cells were grown in DMEM media with 10% serum.

[2] = system: melanocytic markers (Mitf, Dct, Tyrp1 mRNA); test: Quantitative RT-PCR of melanocytic markers in primary cultured tumor cells; assay type: cell-based, mouse; conditions: 2 μM PLX4720, mRNA normalized to 18s rRNA and 0 h timepoint
Procedure: RNA was harvested from primary cultured tumor cells treated for varying times with forskolin or PLX4720 using the RNeasy Plus mini kit (QIAGEN). mRNA expression of melanocytic markers was determined using intron-spanning mouse-specific primers with Kapa SYBR FAST qPCR master mix (KAPA BIOSYSTEMS). Expression was normalized to 18s rRNA and 0 hour time-points.

redhead-BRaf^CA melanoma = test: In vivo PLX4720 study, mouse chow containing PLX4720; conditions: 4 weeks of mouse chow containing 2% PLX4720 by weight, n=3
Procedure: At 6-10 weeks of age the dorsal fur was trimmed using animal shears with a 0.25 mm head and the mice were treated topically with 20 mg/ml tamoxifen for 5 consecutive days. […] For in vivo PLX4720 studies, animals were given ad libitum mouse chow containing 2% PLX4720 by weight or control chow acquired from Plexxikon Inc. All studies and procedures involving animal subjects were approved by the Institutional Animal Care and Use Committees of Massachusetts General Hospital and Dana-Farber Harvard Cancer Center and were conducted strictly in accordance with the approved animal handling protocol.

[3] = system: primary cell line derived from one of the redhead (BRaf^V600E-Mc1r^e/e) melanomas; test: cells; conditions: Mus musculus, 72 h, read-out: GI50, melanoma cell proliferation
Procedure: as §1

Structure (SMILES): CCCS(=O)(=O)Nc1ccc(F)c(C(=O)c2c[nH]c3ncc(Cl)cc23)c1F [PLX4720]
- melanoma cell proliferation in vitro [1]: prevented melanoma cell proliferation in vitro
- expression of melanocytic markers [2]: upregulates
- melanoma growth in vivo (redhead-BRaf^CA melanoma): blocked tumor cell growth in vivo; also recorded: blocks melanoma growth in vivo
- GI50 [3]: 0.5 µM

Structure (SMILES): N#CC(=C(/N)Sc1ccccc1N)/C(C#N)=C(\N)Sc1ccccc1N [U0126]
- melanoma cell proliferation in vitro [1]: prevented melanoma cell proliferation in vitro
- GI50 [3]: 2 µM
